Legend:
[1] = system: striatonigral degeneration approach in the rat; experiment: Striatonigral degeneration in the rat (6-hydroxydopamine plus quinolinic acid), turning behavior; format: in vivo; conditions: automated recorder
From the text: Another more recent animal model is the striatonigral degeneration approach in the rat according to […] et al., J. Neural Transm. Suppl., 1999; 55: 103-113. Rats receive an unilateral injection of 6-hydroxydopamine into the left medial forebrain bundle followed by an injection of quinolinic acid into the ipsilateral striatum inducing nigrostriatal degeneration. The degeneration results in turning behavior to a challenge with dopaminomimetics such as apomorphine or amphetamine. Turning behavior is measured by an automated recorder.

[2] = system: systemic 3-nitropropionic acid (3-NP) model in rats; experiment: Systemic 3-nitropropionic acid (3-NP) model in rats, nocturnal activity; format: in vivo, rat
From the text: A typical animal model is the systemic 3-nitropropionic acid (3-NP) model in rats according to C.
After two injections of 3-NP, rats display nocturnal hyperactivity reflecting symptoms of early Huntington's disease, whereas rats treated with four injections of 3-NP display nocturnal akinesia (hypoactivity) reflecting symptoms of late Huntington's disease. Nocturnal activity is automatically measured in conventional activity cages by infrared beams.

5-HT1A receptor [3] = target: T1, 5-HT1A receptor (Homo sapiens, UniProt P08908); experiment: biochemical
[4] = system: oxotremorine-induced tremor; experiment: Oxotremorine-induced tremor; format: in vivo; conditions: rating scale
Protocol: A typical animal model for drug-induced tremors is the oxotremorine-induced tremor (e.g. H. Hallberg and O. Almgren, Acta Physiol. Scand., 1987; 129: 407-13; J. G. Clement and W. R. Dyck, J. Pharmacol. Meth., 1989; 22: 25-36). Oxotremorine induces tremor which is measured by a rating scale. (R)-(−)-2-[5-(4-fluoro-phenyl)-3-pyridyl-methyl-amino-methyl]-chromane or one of its pharmaceutically acceptable salt inhibited oxotremorine-induced tremors.

Weaver mutant mouse = Weaver mutant mouse (locomotor activity); format: in vivo; conditions: activity cages
From the text: (§1) Typical genetic models in mutant animals are the Campus Syndrome in the Pietrain pig according to A. Richter et al. (Exp. Neurology, 1995; 134: 205-213) or the Weaver mutant mouse according to J. R. Simon and B. Ghetti (Mol. Neurobiol., 1994; 9: 183-189). In the Campus Syndrome model, these mutant pigs show a high-frequency tremor when standing and during locomotion, but not while lying at rest. Assessment of tremor is made by accelerometric recording. In the Weaver mutant mouse, degenerative cerebellar atrophy is fould in association with tremor, gait instability, and toppling over the sides after a few steps.

[5] = system: reserpinized rat or mouse; experiment: Reserpinized rat or mouse (akinesia); format: in vivo; conditions: 24 h after reserpine
Protocol: A typical animal model is the reserpinized rat or mouse (e.g. […]. Neural Transm.-Park. Dis. Dement. Sect., 1994; 7: 133-142; M. Gossel et al., J. Neural Transm.-Park. Dis. Dement. Sect., 1995; 10: 27-39; N. R. Hughes et al., Mov. Disord., 1998; 13: 228-233). Reserpine is a potent depleter of monoamines and produces nearly complete akinesia in both species. Prominent 24 h after application, the distance traveled and the time active is nearly zero as measured in conventional activity meters.

[6] = system: neuroleptics-induced muscle rigidity in rats; experiment: Neuroleptics-induced muscle rigidity in rats; format: in vivo, rat; conditions: resistance to passive flexion and extension of the hind limb
From the text: A typical animal model is neuroleptics-induced muscle rigidity in rats according to S. Wolfarth et al., Arch. Pharmacol. 1992; 345: 209-212. Rats are challenged with the conventional neuroleptic drug haloperidol which enhances muscle tone. Muscle tone is electromechanically measured as the resistance to passive flexion and extension of the hind limb.

dopamine D3 receptor = dopamine D3 receptor (Homo sapiens, UniProt P35462)
rats = experiment: Catalepsy induction in rats (extrapyramidal motor side effects); format: in vivo, rat; conditions: doses up to 500 fold higher compared to the doses effective in the animal models
Protocol: (§2) Extrapyramidal motor side effects in e.g. rodents are measured by the ability of a drug to induce catalepsy. Catalepsy is defined as a state where an animal continues to remain in an unnormal (nonphysiological 'uncomfortable') posture for a long time ([…] and S. D. Glick, Neuropharmacology, 1996; 15: 393-394; […] P. Janssen, Life Sci., 1979, […]). For example, if a hindpaw of a rat is placed on an elevated level, e.g. a platform elevated 3 cm above ground level, a normal rat immediately withdraws the hindpaw from the platform to the ground level. A cataleptic rat remains in this unnatural posture even for minutes.

[7] = system: catalepsy induced by conventional antidopaminergic drugs such as haloperidol; experiment: Catalepsy induced by conventional antidopaminergic drugs such as haloperidol; format: in vivo; conditions: same dose-range as effective in the animal models
Protocol: as §2

[8] = system: Parkinsonian cynomolgus monkey; experiment: MPTP Parkinsonian cynomolgus monkey chronically treated with I-dopa (adverse effects of anti-Parkinsonian drugs); format: in vivo; conditions: MPTP monkeys, long-term I-dopa
Protocol: Treatment of adverse effects of conventional anti-Parkinsonian drugs as defined above are determined in a modification of the animal model of the Parkinsonian cynomolgus monkey according to P. J. Blanchet et al., Exp. Neurology 1998; 153: 214-222. Monkeys render parkinsonian by repeated injections of 1-methyl-4-phenyl-1,2,3,6-tetrahydropyridine (MPTP). The Parkinsonian monkeys are chronically treated with the standard I-dopa therapy according to P. J. Blanchet et al., Mov. Disord., 1998; 13: 798-802. Longterm treatment with I-dopa induces extrapyramidal motor side effects and psychotic states which are both qualitatively and quantitatively, assessed by the Abnormal Involuntary Movement Scale (P. J. Blanchet et al., Mov. Disord. 1998; 13: 798-802) for different body parts (face, neck, trunk, each limb) and by rating for psychotic states by observing the monkey's attention, reactivity and mobility.

5-HT1A receptor [9] = target: T1, 5-HT1A receptor; conditions: in contrast to buspirone
[10] = system: Parkinsonian cynomolgus monkey; experiment: MPTP Parkinsonian cynomolgus monkey, Laval University Disability Scale; format: in vivo; conditions: MPTP monkeys
From the text: A typical animal model for idiopathic Parkinson's disease is the Parkinsonian cynomolgus monkey according to P. J. Blanchet et al., Exp. Neurology 1998; 153: 214-222. Monkeys render parkinsonian by repeated injections of 1-methyl-4-phenyl-1,2,3,6-tetrahydropyridine (MPTP). Parkinsonian symptoms are qualitatively assessed by the use of the Laval University Disability Scale (B. Gomez-Mancilla et al., 1993; Mov. Disord. 8: 144-150) measuring the following symptoms: posture, mobility, climbing, gait, holding food, vocalizing, grooming, social interaction.

mutant dystonic hamster = experiment: Mutant dystonic hamster; format: in vivo; conditions: scoring system
From the text: A typical animal model is the mutant dystonic hamster according to A. Richter and W. Löscher, Prog. Neurobiol. 1998; 54: 633-677. In this genetically dystonic hamsters, dystonic attacks are provoked by taking the animal from the home cage and placing it on a balance. The dystonic syndrome consists of a sequence of abnormal movements, and the severity of the single symptoms is rated by a scoring system.

[11] = system: posthypoxic myoclonus, rats; experiment: Posthypoxic myoclonus in rats; format: in vivo, rat; conditions: after cardiac arrest for 8 minutes
Protocol: A typical animal model for myoclonus is myoclonus induced by an acute hypoxic episode according to D. D. Truong et al., Mov. Disord., 1994; 9: 201-206). In this model of posthypoxic myoclonus, rats undergo a cardiac arrest for 8 minutes and are resuscitated thereafter. Myoclonic jerks occur spontaneously but can be provoked by auditory stimulation, too, worsening over the days following cardiac arrest.

[12] = system: neuroleptics sensitized monkey; experiment: Neuroleptics sensitized monkey, haloperidol challenge; format: in vivo; conditions: given after haloperidol challenge; scoring system
From the text: Another typical animal model is the neuroleptics sensitized monkey according to D. E. Casey, Psychopharmacology, 1996; 124: 134-140. Monkeys treated repeatedly with conventional neuroleptics are highly sensitive to a subsequent challenge dose of neuroleptic drugs. When challenged, the monkeys immediately show extrapyramidal motor side effects such as dystonia, dyskinesias, akathisia, and bradykinesia which are rated by a scoring system. The conventional neuroleptic drug haloperidol is given as a challenge.

D2 = D2 (Homo sapiens, UniProt P14416); experiment: D2 antagonism; conditions: under increased doses
[13] = system: Campus Syndrome in the Pietrain pig; experiment: Campus Syndrome in the Pietrain pig (tremor); format: in vivo; conditions: accelerometric recording
From the text: as §1

[14] = Abnormal Involuntary Movement Scale

T1 sequence (P08908 whole entry): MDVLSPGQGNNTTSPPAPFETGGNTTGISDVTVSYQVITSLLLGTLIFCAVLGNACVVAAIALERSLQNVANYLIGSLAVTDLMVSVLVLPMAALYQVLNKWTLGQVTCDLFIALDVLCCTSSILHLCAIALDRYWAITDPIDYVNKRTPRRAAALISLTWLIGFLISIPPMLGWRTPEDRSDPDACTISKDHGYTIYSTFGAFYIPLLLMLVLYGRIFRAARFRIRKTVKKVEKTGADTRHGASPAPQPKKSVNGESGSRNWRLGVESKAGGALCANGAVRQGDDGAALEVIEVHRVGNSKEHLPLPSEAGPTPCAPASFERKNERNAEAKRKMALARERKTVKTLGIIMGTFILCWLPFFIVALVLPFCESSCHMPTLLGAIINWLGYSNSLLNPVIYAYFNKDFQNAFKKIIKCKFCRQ
Sequence of D2 (P14416 whole entry): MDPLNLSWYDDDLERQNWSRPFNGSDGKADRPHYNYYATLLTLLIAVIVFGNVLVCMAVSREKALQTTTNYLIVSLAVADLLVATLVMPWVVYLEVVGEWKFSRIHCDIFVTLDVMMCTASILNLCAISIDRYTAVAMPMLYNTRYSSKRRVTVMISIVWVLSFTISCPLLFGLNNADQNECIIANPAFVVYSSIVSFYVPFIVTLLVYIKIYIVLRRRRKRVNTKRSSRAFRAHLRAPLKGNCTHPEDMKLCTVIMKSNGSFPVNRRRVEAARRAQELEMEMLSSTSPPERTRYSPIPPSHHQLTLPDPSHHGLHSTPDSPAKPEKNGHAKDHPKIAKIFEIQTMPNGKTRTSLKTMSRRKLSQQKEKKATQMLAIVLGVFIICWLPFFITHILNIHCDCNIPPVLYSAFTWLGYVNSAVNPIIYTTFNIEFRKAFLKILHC
Sequence of dopamine D3 receptor (P35462 whole entry, species assumed): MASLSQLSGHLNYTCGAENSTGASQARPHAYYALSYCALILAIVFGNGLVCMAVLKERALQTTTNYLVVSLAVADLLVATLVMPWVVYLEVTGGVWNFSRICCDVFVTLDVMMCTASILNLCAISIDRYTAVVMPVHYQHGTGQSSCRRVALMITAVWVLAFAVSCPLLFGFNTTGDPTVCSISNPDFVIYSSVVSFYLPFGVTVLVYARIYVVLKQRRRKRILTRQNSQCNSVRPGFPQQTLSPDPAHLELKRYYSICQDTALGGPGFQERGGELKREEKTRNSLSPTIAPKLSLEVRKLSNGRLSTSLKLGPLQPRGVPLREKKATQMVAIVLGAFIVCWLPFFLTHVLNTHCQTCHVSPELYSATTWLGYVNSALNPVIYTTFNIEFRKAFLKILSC

## Fc1ccc(-c2cncc(CNC[C@H]3CCc4ccccc4O3)c2)cc1 [(R)-(−)-2-[5-(4-fluorophenyl)-3-pyridylmethylaminomethyl]-chromane]
[1]
  turning behavior induced by amphetamine: dose-dependently antagonized
  turning behavior induced by apomorphine: dose-dependently antagonized
[2]; after four injections of 3-NP (late Huntington's disease)
  nocturnal akinesia (hypoactivity): reduced
[2]; after two injections of 3-NP (early Huntington's disease)
  nocturnal hyperactivity: reduced
5-HT1A receptor [3]
  IC50: 1 nM
[4]
  oxotremorine-induced tremors: inhibited
Weaver mutant mouse
  locomotor activity: enhanced
[5]
  akinesia: dose-dependently reduced
[5]; activity meters
  distance traveled and time active: restored distance traveled and time active to about the level of normal animals
[6]
  muscle tone enhanced by haloperidol: decreased
Dopamine D3 receptor
  affinity to the dopamine D3 receptor: high affinity
rats
  induction of catalepsy: does not induce any catalepsy
[7]
  prevention of catalepsy induced by conventional antidopaminergic drugs: able to prevent catalepsy
  reversal of already existing catalepsy induced by conventional antidopaminergic drugs such as haloperidol: reverses already existing catalepsy
[8]; [14]
  dystonic dyskinesias: reduced
  overall choreiform dyskinesias: reduced
[8]; rating of attention, reactivity and mobility
  psychotic states: reduced
5-HT1A receptor [9]
  potency as agonist at the 5-HT1A receptor relative to buspirone: 30 fold
[10]
  parkinsonian symptoms (Laval University Disability Scale): reduced all the parkinsonian symptoms
  total activity: increased
Mutant dystonic hamster
  severity of dystonic symptoms: dose-dependently reduced
[11]
  number of auditory-evoked myoclonic jerks: dose-dependently reduced
  number of spontaneous myoclonic jerks: dose-dependently reduced
[12]
  extrapyramidal motor side effects (dystonia, dyskinesias, akathisia, bradykinesia): dose-dependently reduced
D2
  D2 antagonism: exhibit a D2 antagonism under increased doses
[13]
  tremor when standing and during locomotion: reduced disabling tremor

Source: patent US7928128B2, “Use of(R)-(−) -2-[5-(4-fluorophenyl)-3-pyridylmethylaminomethyl]-chromane and its physiologically acceptable salts” (Merck Patent Gesellschaft mit beschrankter Haftung, priority 2000, dated 2011)
